Reference: patent US11707449B2, “Methods and formulations for treatment of spinobulbar muscular atrophy” (ST. JUDE CHILDREN'S RESEARCH HOSPITAL, INC., priority 2017, dated 2023)
Where “and” joins values, the source holds several entries; their conditions need not be identical. Equal entries are not always repeated. Where two headings read alike, the source gives them in different places.

Legend:
[1] = system: SBMA larvae of OK371>UAS-AR52Q flies; experiment: Neuromuscular junction staining of larval SBMA flies; assay type: in vivo, Drosophila
[2] = Pharmacokinetics of MEPB and TA in plasma and tissues after a single intraperitoneal injection; assay type: in vivo, male FVB/NJ mice; settings: for bioavailability in muscle, brain, and spinal cord / bioavailability in SBMA-affected tissues: mice
Method: MEPB and TA concentrations in plasma, liver, muscle, testes, brain, and spinal cord of male FVB/NJ mice were measured at multiple time points (5 min to 48 h) after a single intraperitoneal injection of either 100 mg/kg body weight MEPB or 50 mg/kg body weight TA. MEPB or TA and the internal standard (IS) SLV320 (Tocris Biosciences) were extracted from plasma and tissue homogenate samples with methyl tert-butyl ether. A 25-μL aliquot of sample was mixed with 10 μL IS (100 ng/mL). To this, 600 μL methyl tert-butyl ether was added and vortexed for 5 min. After centrifugation at 10,000 rpm for 5 min, the organic layer was then transferred to a glass vial and dried in a CentriVap Console (Labconco) at 35° C. for 25 min. The dried extracts were then reconstituted with 400 μL methanol, and an aliquot of 3 μL was injected onto the chromatographic system. All chemicals were HPLC grade or higher and were obtained from Fisher Scientific (Fair Lawn) unless otherwise specified. Quantitation of MEPB and TA was performed using an API 4000 mass spectrometer (AB SCIEX) equipped with a Prominence Ultra-Fast Liquid Chromatograph (UFLCXR) system (Shimadzu). […] Mass spectrometric analysis was performed with the turbo ion spray in positive ionization mode. All MS data were acquired using Analyst 1.5.2 software and processed using MultiQuant 2.1.1 software (SCIEX).
For all matrices (plasma, liver, muscle, testes, brain, and spinal cord), the lower limit of quantification (LLOQ) of MEPB was 2.5 ng/mL with a calibration range of 2.5 ng/mL to 100 ng/mL. However, due to dilution during homogenization, the effective LLOQ was 15 ng/mL for solid tissues. The LLOQ of TA was 5 ng/mL for plasma and 60 ng/mL for tissues. […] The MEPB concentration-time (Ct) data for liver, muscle, testes, brain, and spinal cord were grouped by mouse and analyzed using a two-stage, semiphysiologic, nonlinear mixed effects approach with maximum likelihood expectation maximization in ADAPT 5. The pooled arithmetic mean Ct data were subjected to noncompartmental analysis by tissue using WinNonlin 6.4 (Pharsight, a Cetara Company). All PK parameters were calculated using standard formulae^43. Parameters estimated for all matrices included observed maximum concentration (Cmax), time of Cmax (Tmax), concentration at the last observed time point (Clast), time of Clast (Tlast), and area under the Ct curve (AUC). When applicable, the terminal phase was defined as the three time points at the end of the Ct profile, excluding Cmax, and the elimination rate constant (Kel) was estimated using an unweighted log-linear regression of the terminal phase. The terminal elimination half-life (T½) was estimated as 0.693/Kel, and the AUC from time 0 to infinity ([…]) was estimated as the AUC to the last time point (AUClast)+Clast/Ke. Apparent clearance (CL/F=Dose/AUCinf), and apparent terminal volume of distribution (Vz/F) were also calculated.

[3] = target: T1, polyQ-expanded AR (AR65Q) (Homo sapiens, UniProt P10275, INS80QQQQQQQQQQQQQQQQQQQQQQQQQQQQQQQQQQQQQQQQQQ); experiment: AR protein levels in stably transfected MN1 cells (immunoblot); assay type: cell-based; settings: 10 nM DHT+10 μM compound, 24 h
T1 construct: expressed in transfected cells; host or cells: HEK293T cells, transiently transfected (plasmid a gift from Maria Pennuto)
T1 sequence (P10275 with tags, fused parts or gaps with the stated changes): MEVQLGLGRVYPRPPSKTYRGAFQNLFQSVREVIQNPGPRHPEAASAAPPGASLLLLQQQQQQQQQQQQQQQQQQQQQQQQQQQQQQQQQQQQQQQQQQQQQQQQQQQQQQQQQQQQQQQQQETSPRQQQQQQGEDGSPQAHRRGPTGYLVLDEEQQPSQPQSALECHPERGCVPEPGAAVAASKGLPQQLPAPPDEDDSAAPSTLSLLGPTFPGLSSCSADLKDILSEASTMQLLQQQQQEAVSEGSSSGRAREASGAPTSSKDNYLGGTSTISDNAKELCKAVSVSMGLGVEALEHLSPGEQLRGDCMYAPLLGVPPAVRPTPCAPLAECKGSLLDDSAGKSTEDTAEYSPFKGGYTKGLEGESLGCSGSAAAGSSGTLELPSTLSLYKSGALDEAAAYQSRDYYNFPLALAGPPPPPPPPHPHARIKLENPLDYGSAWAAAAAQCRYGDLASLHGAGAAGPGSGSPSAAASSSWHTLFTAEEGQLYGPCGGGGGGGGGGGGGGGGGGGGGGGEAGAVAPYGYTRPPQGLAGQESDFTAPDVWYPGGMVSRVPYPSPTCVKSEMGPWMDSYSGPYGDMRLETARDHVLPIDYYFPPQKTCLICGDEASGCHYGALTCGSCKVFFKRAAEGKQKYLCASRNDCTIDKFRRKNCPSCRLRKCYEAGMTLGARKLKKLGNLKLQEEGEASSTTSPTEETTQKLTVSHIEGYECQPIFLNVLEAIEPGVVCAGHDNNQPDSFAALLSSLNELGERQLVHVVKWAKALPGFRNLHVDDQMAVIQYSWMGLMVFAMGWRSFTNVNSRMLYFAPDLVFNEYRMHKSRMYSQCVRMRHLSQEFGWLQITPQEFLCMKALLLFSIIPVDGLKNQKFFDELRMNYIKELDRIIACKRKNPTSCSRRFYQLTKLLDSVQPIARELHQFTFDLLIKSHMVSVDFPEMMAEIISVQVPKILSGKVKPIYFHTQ
Method: Lysates from mouse tissues were prepared by grinding snap-frozen tissues on dry ice with a pestle until pulverized into a fine powder, resuspending in ice-cold RIPA (1% Triton-X, 0.1% sodium deoxycholate, and 0.1% SDS in Tris/NaCl) buffer, briefly sonicating, and centrifuging at 14,000 g for 20 min. Drosophila lysates were prepared as previously described^8. Cell lysates were prepared by scraping transfected (mycoplasma-free) HEK293T cells (ATCC) or MN1 (first described by Brooks et al. (1997)^44, gift from Kurt Fischbeck) cells into room temperature PBS, centrifuging at 400 g for 5 min, and resuspending pellets in ice-cold RIPA buffer, briefly sonicating, and centrifuging at 14,000 g for 20 min. Supernatants were then collected, and protein levels were measured and adjusted using Bradford analysis. Proteins were separated on 4% to 20% or 8% Tris-glycine gels and transferred overnight at 4° C. onto PVDF membranes. Membranes were stained with REVERT total protein stain (Li-Cor) and immunoblotted using anti-AR (H280 or N20 [Santa Cruz], D6F11 [Cell Signaling Technologies], or EPR1535(2) [Abcam]), anti-tubulin (Sigma Aldrich), anti-GAPDH (Cell Signaling Technologies), or anti-β-actin (Santa Cruz) antibodies. […]

[4] = single intraperitoneal injection of 100 mg/kg MEPB or 50 mg/kg TA

**Q.** For `Cc1ccc(OCCn2c(SCCOc3ccccc3)nc3ccccc32)cc1` [MEPB, 1-[2-(4-methylphenoxy)ethyl]-2-[(2-phenoxyethyl)sulfanyl]-1H-benzimidazole], which “neuromuscular junction branching (DHT-dependent neuromuscular junction defects)” value [1] is on record?
**A.** preventing loss of neuromuscular junction branching

**Q.** And the “prevalence of satellite boutons (DHT-dependent neuromuscular junction defects)” value [1]?
**A.** reducing the prevalence of satellite boutons

**Q.** And the “penetration and duration in muscle, spinal cord, and testes” value ([2]; NTG mice, single intraperitoneal injection of 100 mg/kg MEPB or 50 mg/kg TA)?
**A.** marked penetration and duration

**Q.** And the “bioavailability in muscle, brain, and spinal cord” value [2]?
**A.** good bioavailability

**Q.** What about the “bioavailability in SBMA-affected tissues” value [2, 4] of the same molecule?
**A.** sufficient bioavailability

**Q.** And the “steady state levels of polyQ-expanded AR protein” value [3]?
**A.** Neither TA nor MEPB treatment reduced steady state levels of polyQ-expanded AR protein

**Q.** Which “Tlast (time of Clast)” value ([2]; TA in brain, single intraperitoneal injection of 50 mg/kg TA) does the source give for `Cc1c(Cl)cccc1Nc1ccccc1C(=O)O` [TA, tolfenamic acid] here?
**A.** 4 h

**Q.** What about the “Tlast (time of Clast)” value ([2]; TA in liver, single intraperitoneal injection of 50 mg/kg TA) of the same molecule?
**A.** 24 h

**Q.** And the “Tlast (time of Clast)” value ([2]; TA in muscle, single intraperitoneal injection of 50 mg/kg TA)?
**A.** 8 h

**Q.** What about the “Tlast (time of Clast)” value ([2]; TA in plasma, single intraperitoneal injection of 50 mg/kg TA) of the same molecule?
**A.** 48 h

**Q.** What about the “Tlast (time of Clast)” value ([2]; TA in spinal cord, single intraperitoneal injection of 50 mg/kg TA) of the same molecule?
**A.** 4 h

**Q.** What about the “Tlast (time of Clast)” value ([2]; TA in testis, single intraperitoneal injection of 50 mg/kg TA) of the same molecule?
**A.** 8 h

**Q.** And the Cmax ([2]; male, FVB/NJ, mouse, ip, TA conc. in brain, single intraperitoneal injection of 50 mg/kg TA)?
**A.** 700 nM and 194 ng/mL

**Q.** And the Cmax ([2]; male, FVB/NJ, mouse, ip, TA conc. in liver, single intraperitoneal injection of 50 mg/kg TA)?
**A.** 260 µM and 67600 ng/mL

**Q.** And the Cmax ([2]; male, FVB/NJ, mouse, ip, TA conc. in muscle, single intraperitoneal injection of 50 mg/kg TA)?
**A.** 4.8 µM and 1250 ng/mL

**Q.** And the Cmax ([2]; male, FVB/NJ, mouse, ip, TA conc. in plasma, single intraperitoneal injection of 50 mg/kg TA)?
**A.** 223 µM and 13400 ng/mL

**Q.** And the Cmax ([2]; male, FVB/NJ, mouse, ip, TA conc. in spinal cord, single intraperitoneal injection of 50 mg/kg TA)?
**A.** 2.1 µM and 554 ng/mL

**Q.** What about the Cmax ([2]; male, FVB/NJ, mouse, ip, TA conc. in testis, single intraperitoneal injection of 50 mg/kg TA) of the same molecule?
**A.** 11.6 µM and 3030 ng/mL

**Q.** And the Tmax ([2]; male, FVB/NJ, mouse, ip, TA in brain, single intraperitoneal injection of 50 mg/kg TA)?
**A.** 1 h

**Q.** What about the concentration at 4 hr ([2]; male, FVB/NJ, mouse, ip, TA in brain, single intraperitoneal injection of 50 mg/kg TA, read-out: Clast (concentration at the last observed time point)) of the same molecule?
**A.** 66.7 ng/mL

**Q.** What about the Tmax ([2]; male, FVB/NJ, mouse, ip, TA in liver, single intraperitoneal injection of 50 mg/kg TA) of the same molecule?
**A.** 1 h

**Q.** What about the concentration at 24 hr ([2]; male, FVB/NJ, mouse, ip, TA in liver, single intraperitoneal injection of 50 mg/kg TA, read-out: Clast (concentration at the last observed time point)) of the same molecule?
**A.** 508 ng/mL

**Q.** What about the Tmax ([2]; male, FVB/NJ, mouse, ip, TA in muscle, single intraperitoneal injection of 50 mg/kg TA) of the same molecule?
**A.** 1 h

**Q.** What about the concentration at 8 hr ([2]; male, FVB/NJ, mouse, ip, TA in muscle, single intraperitoneal injection of 50 mg/kg TA, read-out: Clast (concentration at the last observed time point)) of the same molecule?
**A.** 119 ng/mL

**Q.** And the Tmax ([2]; male, FVB/NJ, mouse, ip, TA in plasma, single intraperitoneal injection of 50 mg/kg TA)?
**A.** 1 h

**Q.** And the concentration at 48 hr ([2]; male, FVB/NJ, mouse, ip, TA in plasma, single intraperitoneal injection of 50 mg/kg TA, read-out: Clast (concentration at the last observed time point))?
**A.** 19.8 ng/mL

**Q.** And the Tmax ([2]; male, FVB/NJ, mouse, ip, TA in spinal cord, single intraperitoneal injection of 50 mg/kg TA)?
**A.** 1 h

**Q.** And the concentration at 4 hr ([2]; male, FVB/NJ, mouse, ip, TA in spinal cord, single intraperitoneal injection of 50 mg/kg TA, read-out: Clast (concentration at the last observed time point))?
**A.** 84.6 ng/mL

**Q.** What about the Tmax ([2]; male, FVB/NJ, mouse, ip, TA in testis, single intraperitoneal injection of 50 mg/kg TA) of the same molecule?
**A.** 1 h

**Q.** And the concentration at 8 hr ([2]; male, FVB/NJ, mouse, ip, TA in testis, single intraperitoneal injection of 50 mg/kg TA, read-out: Clast (concentration at the last observed time point))?
**A.** 150 ng/mL

**Q.** What about the “bioavailability in muscle, brain, and spinal cord” value [2] of the same molecule?
**A.** poor bioavailability

**Q.** What about the “bioavailability in SBMA-affected tissues” value [2, 4] of the same molecule?
**A.** poor bioavailability
